Format in all cases: in vivo
The test system of test [1] is wheat (Triticum aestivum). Description: Test A postemergence. The note with it: Triticum aestivum, post-emergence, 240 h, 125 g ai/ha, postemergence; visual injury after approximately 10 d; 0 to 100 scale (0 no effect, 100 complete control); read-out: Plant response rating, Wheat. In outline: (§1)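 Ratings of 0 (no effect) to 100 (complete control) come from visual comparison with untreated controls roughly 10 d after treatment. Test chemicals, formulated in a non-phytotoxic solvent mixture with surfactant, were applied either as a preemergence directed soil spray on seeded soil or postemergence to one- to two-leaf plants 2 to 10 cm tall.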

Test [2] has as its system Galium (catchweed bedstraw, Galium aparine). Description: Test A postemergence. The note with it: Galium, post-emergence, 240 h, 125 g ai/ha, postemergence; visual injury after approximately 10 d; 0 to 100 scale (0 no effect, 100 complete control); read-out: Plant response rating, Galium. The gist of the method:
as §1

Test [3] concerns pigweed (Amaranthus retroflexus). Put plainly: Test A postemergence. Particulars: Amaranthus retroflexus, post-emergence, 240 h, 125 g ai/ha, postemergence; visual injury after approximately 10 d; 0 to 100 scale (0 no effect, 100 complete control); read-out: Plant response rating, Pigweed. The gist of the method: as §1
For test [4], the system named is corn (Zea mays). Description: Test A postemergence. The note with it: Zea mays, post-emergence, 240 h, 125 g ai/ha, postemergence; visual injury after approximately 10 d; 0 to 100 scale (0 no effect, 100 complete control). In outline: as §1
For test [5], the system named is Kochia (Kochia scoparia). Put plainly: Test A postemergence. Particulars: Bassia scoparia, post-emergence, 240 h, 125 g ai/ha, postemergence; visual injury after approximately 10 d; 0 to 100 scale (0 no effect, 100 complete control); read-out: Plant response rating, Kochia. In outline:
as §1

For test [6], the system named is ryegrass, Italian (Italian ryegrass, Lolium multiflorum). Description: Test A postemergence. Particulars: Lolium multiflorum, post-emergence, 240 h, 125 g ai/ha, postemergence; visual injury after approximately 10 d; 0 to 100 scale (0 no effect, 100 complete control); read-out: Plant response rating, Ryegrass, Italian. The gist of the method:
as §1

Test [7] has as its system ragweed (common ragweed, Ambrosia elatior). Put plainly: Test A postemergence. Particulars: Ambrosia artemisiifolia, post-emergence, 240 h, 125 g ai/ha, postemergence; visual injury after approximately 10 d; 0 to 100 scale (0 no effect, 100 complete control); read-out: Plant response rating, Ragweed. In outline: as §1
Test [8] concerns barnyardgrass (Echinochloa crus-galli). Put plainly: Test A postemergence. The note with it: Echinochloa crus-galli, post-emergence, 240 h, 125 g ai/ha, postemergence; visual injury after approximately 10 d; 0 to 100 scale (0 no effect, 100 complete control); read-out: Plant response rating, Barnyardgrass. In outline: as §1
Test [9] has as its system giant foxtail (Setaria faberii). Description: Test A postemergence. The note with it: Setaria faberi, post-emergence, 240 h, 125 g ai/ha, postemergence; visual injury after approximately 10 d; 0 to 100 scale (0 no effect, 100 complete control); read-out: Plant response rating, Foxtail, Giant. The gist of the method: as §1
In test [10] the test system is pigweed (Amaranthus retroflexus). Description: Test A preemergence. The note with it: Amaranthus retroflexus, pre-emergence, 240 h, preemergence, read-out: Plant response rating, Pigweed; for pest or weed control at 125 g/ha: 125 g ai/ha, visual rating after approx. 10 d, 0 to 100 scale where 0 is no effect and 100 is complete control; for pest or weed control at 500 g/ha: 500 g ai/ha, 0 to 100 scale, 0 = no effect, 100 = complete control.

Test [11] relates to Kochia (Kochia scoparia). Put plainly: Test A preemergence. The note with it: Bassia scoparia, pre-emergence, 240 h, preemergence, read-out: Plant response rating, Kochia; for pest or weed control at 125 g/ha: 125 g ai/ha, visual rating after approx. 10 d, 0 to 100 scale where 0 is no effect and 100 is complete control; for pest or weed control at 500 g/ha: 500 g ai/ha, 0 to 100 scale, 0 = no effect, 100 = complete control. The gist of the method: as §1

The subject of test [12] is ryegrass, Italian (Italian ryegrass, Lolium multiflorum). Description: Test A preemergence. Particulars: Lolium multiflorum, pre-emergence, 240 h, preemergence, read-out: Plant response rating, Ryegrass, Italian; for pest or weed control at 125 g/ha: 125 g ai/ha, visual rating after approx. 10 d, 0 to 100 scale where 0 is no effect and 100 is complete control; for pest or weed control at 500 g/ha: 500 g ai/ha, 0 to 100 scale, 0 = no effect, 100 = complete control. In outline:
as §1

Test [13] deals with ragweed (common ragweed, Ambrosia elatior). Description: Test A preemergence. The note with it: Ambrosia artemisiifolia, pre-emergence, 240 h, preemergence, read-out: Plant response rating, Ragweed; for pest or weed control at 125 g/ha: 125 g ai/ha, visual rating after approx. 10 d, 0 to 100 scale where 0 is no effect and 100 is complete control; for pest or weed control at 500 g/ha: 500 g ai/ha, 0 to 100 scale, 0 = no effect, 100 = complete control. In outline:
as §1

Test [14] deals with barnyardgrass (Echinochloa crus-galli). Put plainly: Test A preemergence. The note with it: Echinochloa crus-galli, pre-emergence, 240 h, preemergence, read-out: Plant response rating, Barnyardgrass; for pest or weed control at 125 g/ha: 125 g ai/ha, visual rating after approx. 10 d, 0 to 100 scale where 0 is no effect and 100 is complete control; for pest or weed control at 500 g/ha: 500 g ai/ha, 0 to 100 scale, 0 = no effect, 100 = complete control. In outline: as §1

The test system of test [15] is giant foxtail (Setaria faberii). Description: Test A preemergence. The note with it: Setaria faberi, pre-emergence, 240 h, preemergence, read-out: Plant response rating, Foxtail, Giant; for pest or weed control at 125 g/ha: 125 g ai/ha, visual rating after approx. 10 d, 0 to 100 scale where 0 is no effect and 100 is complete control; for pest or weed control at 500 g/ha: 500 g ai/ha, 0 to 100 scale, 0 = no effect, 100 = complete control. The gist of the method:
as §1

As for `Cc1ccc([C@H]2CNC(=S)[C@@H]2C(=O)Nc2cccc(F)c2C)cc1C` [Compound 764], the plant injury at 125 g/ha in [1] turned out to be 0%. Further, the pest or weed control at 125 g/ha was found to be 0% in [2]; 0% in test [3]; 0% in [5]; 30% in [6]; 0% in [7]; 80% in [8]. Further, the pest or weed control at 125 g/ha in [9] was 0%; in [10], 0%; in test [11], 0%; in test [12], 0%; in test [13], 0%; in [14], 100%. Besides, the pest or weed control at 125 g/ha in test [15] was found to be 70%. Further, the Corn plant response rating (crop injury, 0 = no effect, 100 = complete kill) at 125 g/ha in [4] came out at 0%. Besides, the pest or weed control at 500 g/ha in test [10] was 0%; in test [11] it was 0%; in test [13], 0%; in test [14], 100%; in [15], 80%.
As for `CSc1ccccc1NC(=O)[C@H]1C(=S)NC[C@@H]1c1ccc(C)c(C)c1` [Compound 766], in test [1], the plant injury at 125 g/ha was found to be 0%. Also, the pest or weed control at 125 g/ha in [2] was found to be 0%; in test [3] it was 0%; in [5], 0%; in test [6], 0%; in [7] it was 0%; in test [8], 10%. The pest or weed control at 125 g/ha in test [9] came out at 0%; in test [10], 0%; in [11], 0%; in [12] it was 0%; in test [13], 0%; in test [14], 70%. Further, in test [15], the pest or weed control at 125 g/ha amounted to 0%. The molecule further came in with a Corn plant response rating (crop injury, 0 = no effect, 100 = complete kill) at 125 g/ha in test [4] of 0%. Moreover, the pest or weed control at 500 g/ha in [10] turned out to be 0%; in test [11], 0%; in test [13] it was 0%; in test [14], 90%; in test [15] it was 40%.
For the molecule `Cc1ccc([C@H]2CNC(=O)[C@@H]2C(=O)Nc2cccc(F)c2F)s1` [Compound 729], the plant injury at 125 g/ha in test [1] came to 0%. In addition, the pest or weed control at 125 g/ha in [2], in test [3], in test [5], in [6], in test [7] and in [8] was 0% in each case. Further, the pest or weed control at 125 g/ha in test [9], in test [10], in test [11], in test [12], in test [13] and in test [14] was 0% each time. Also, in test [15], the pest or weed control at 125 g/ha was found to be 0%. The molecule also came in with a Corn plant response rating (crop injury, 0 = no effect, 100 = complete kill) at 125 g/ha in [4] of 0%. Moreover, the pest or weed control at 500 g/ha in test [10], in test [11], in test [12], in test [13], in test [14] and in test [15] was 0% each time.
`Cc1cc([C@H]2CNC(=O)[C@@H]2C(=O)Nc2ccccc2F)ccc1F` [Compound 717]: the plant injury at 125 g/ha in test [1] was found to be 0%. Moreover, the pest or weed control at 125 g/ha came out at 40% in [2]; 0% in [3]; 20% in [5]; 0% in [6]; 0% in [7]; 90% in test [8]. Further, the pest or weed control at 125 g/ha in [9] is 30%; in test [10], 0%; in [11] it was 0%; in test [12], 0%; in [13] it was 0%; in test [14] it was 90%. For the same molecule, the pest or weed control at 125 g/ha in [15] was determined as 80%. The same molecule came in with a Corn plant response rating (crop injury, 0 = no effect, 100 = complete kill) at 125 g/ha in [4] of 0%. The pest or weed control at 500 g/ha in test [10] came out at 30%; in test [11] it was 60%; in test [12], 30%; in test [13] it was 40%; in [14], 90%; in test [15], 90%.
Turning to `CSc1ccccc1NC(=O)[C@H]1C(=O)N(C)C[C@@H]1c1ccc(C)c(C)c1` [Compound 733], the plant injury at 125 g/ha in test [1] amounted to 20%. The pest or weed control at 125 g/ha worked out at 20% in test [2]; 0% in test [3]; 0% in test [5]; 20% in [6]; 0% in [7]; 90% in [8]. Besides, the pest or weed control at 125 g/ha in test [9] is 80%; in [10], 20%; in test [11], 20%; in [12], 40%; in test [13], 70%; in [14], 90%. Also, the pest or weed control at 125 g/ha in [15] turned out to be 90%. The same molecule displayed a Corn plant response rating (crop injury, 0 = no effect, 100 = complete kill) at 125 g/ha in test [4] of 0%. Further, the pest or weed control at 500 g/ha in test [10] came to 60%; in [11], 80%; in [12], 60%; in test [13], 80%; in [14], 100%; in [15] it was 90%.
